From the Kinase Knowledgebase extract (Sharma et al. 2016)

Key:
PIK3CA (human) = PIK3CA (human) (UniProt P42336); assay: Enzyme Assay
PIK3CB (Human) = PIK3CB (Human) (UniProt P42338); assay: Enzyme Assay
PIK3CD (Human) = PIK3CD (Human) (UniProt O00329); assay: Enzyme Assay
PIK3CG (human) [1] = target: PIK3CG (human) (UniProt P48736); assay: Enzyme Assay
PIK3CG (human) [2] = target: PIK3CG (human) (UniProt P48736); assay: Cell-Based Assay; conditions: u937

Sequence of PIK3CD (Human) (O00329 whole entry, looked up): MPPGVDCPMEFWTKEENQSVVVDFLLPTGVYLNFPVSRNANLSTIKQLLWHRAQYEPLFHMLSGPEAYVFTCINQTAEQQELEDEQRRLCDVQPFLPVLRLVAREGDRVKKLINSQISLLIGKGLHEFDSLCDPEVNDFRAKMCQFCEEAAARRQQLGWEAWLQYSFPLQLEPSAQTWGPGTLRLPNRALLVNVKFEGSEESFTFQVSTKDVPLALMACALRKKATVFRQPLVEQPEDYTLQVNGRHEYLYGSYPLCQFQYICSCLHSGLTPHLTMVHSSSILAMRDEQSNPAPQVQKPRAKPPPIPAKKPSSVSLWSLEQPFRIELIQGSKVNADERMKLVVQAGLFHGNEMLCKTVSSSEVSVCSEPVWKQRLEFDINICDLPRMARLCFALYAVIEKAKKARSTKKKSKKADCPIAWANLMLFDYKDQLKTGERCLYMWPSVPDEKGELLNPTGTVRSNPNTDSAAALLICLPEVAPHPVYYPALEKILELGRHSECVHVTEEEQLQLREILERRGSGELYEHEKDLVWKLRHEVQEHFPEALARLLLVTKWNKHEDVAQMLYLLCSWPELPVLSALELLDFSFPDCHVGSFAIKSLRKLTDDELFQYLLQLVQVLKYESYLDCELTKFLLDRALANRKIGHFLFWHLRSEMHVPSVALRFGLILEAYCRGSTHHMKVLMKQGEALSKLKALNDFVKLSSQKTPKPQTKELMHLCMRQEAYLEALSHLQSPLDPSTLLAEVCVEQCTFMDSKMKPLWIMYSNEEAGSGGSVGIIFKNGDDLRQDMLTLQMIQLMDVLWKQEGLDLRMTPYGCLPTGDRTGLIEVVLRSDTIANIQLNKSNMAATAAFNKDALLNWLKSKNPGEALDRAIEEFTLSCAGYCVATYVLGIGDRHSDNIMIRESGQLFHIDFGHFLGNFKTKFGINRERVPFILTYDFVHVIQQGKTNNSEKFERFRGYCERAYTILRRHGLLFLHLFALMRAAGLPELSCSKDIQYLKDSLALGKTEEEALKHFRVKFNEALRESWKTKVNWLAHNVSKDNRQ
Sequence of PIK3CG (human) (P48736 whole entry, looked up): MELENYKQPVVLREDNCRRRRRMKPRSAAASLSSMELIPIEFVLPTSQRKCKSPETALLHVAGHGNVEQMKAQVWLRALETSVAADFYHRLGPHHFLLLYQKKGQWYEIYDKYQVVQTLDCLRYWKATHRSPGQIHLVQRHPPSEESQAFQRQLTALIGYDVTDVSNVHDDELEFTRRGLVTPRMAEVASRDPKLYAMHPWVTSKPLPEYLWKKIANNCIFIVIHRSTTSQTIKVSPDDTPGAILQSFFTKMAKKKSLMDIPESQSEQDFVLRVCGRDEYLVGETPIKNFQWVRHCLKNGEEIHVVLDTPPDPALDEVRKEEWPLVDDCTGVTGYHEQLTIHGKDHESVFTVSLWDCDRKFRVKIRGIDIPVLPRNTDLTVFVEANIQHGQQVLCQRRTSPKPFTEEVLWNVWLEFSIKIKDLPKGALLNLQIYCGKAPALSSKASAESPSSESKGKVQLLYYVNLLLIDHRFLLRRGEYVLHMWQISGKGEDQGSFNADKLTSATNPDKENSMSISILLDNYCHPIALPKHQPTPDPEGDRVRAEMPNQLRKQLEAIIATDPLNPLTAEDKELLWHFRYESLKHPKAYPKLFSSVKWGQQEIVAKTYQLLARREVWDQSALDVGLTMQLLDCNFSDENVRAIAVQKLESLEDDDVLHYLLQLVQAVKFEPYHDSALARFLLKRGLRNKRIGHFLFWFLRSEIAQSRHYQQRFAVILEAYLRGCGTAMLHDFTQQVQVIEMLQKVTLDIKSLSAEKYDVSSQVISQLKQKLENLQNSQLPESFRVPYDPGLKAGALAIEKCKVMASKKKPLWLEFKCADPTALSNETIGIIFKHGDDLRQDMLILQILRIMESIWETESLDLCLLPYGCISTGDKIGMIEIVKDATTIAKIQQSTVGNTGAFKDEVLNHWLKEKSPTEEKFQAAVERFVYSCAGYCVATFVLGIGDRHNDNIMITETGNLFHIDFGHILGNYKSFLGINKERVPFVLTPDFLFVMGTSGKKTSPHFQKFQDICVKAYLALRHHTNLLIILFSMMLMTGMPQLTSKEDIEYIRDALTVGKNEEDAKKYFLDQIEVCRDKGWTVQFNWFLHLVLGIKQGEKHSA
Sequence of PIK3CA (human) (P42336 whole entry, looked up): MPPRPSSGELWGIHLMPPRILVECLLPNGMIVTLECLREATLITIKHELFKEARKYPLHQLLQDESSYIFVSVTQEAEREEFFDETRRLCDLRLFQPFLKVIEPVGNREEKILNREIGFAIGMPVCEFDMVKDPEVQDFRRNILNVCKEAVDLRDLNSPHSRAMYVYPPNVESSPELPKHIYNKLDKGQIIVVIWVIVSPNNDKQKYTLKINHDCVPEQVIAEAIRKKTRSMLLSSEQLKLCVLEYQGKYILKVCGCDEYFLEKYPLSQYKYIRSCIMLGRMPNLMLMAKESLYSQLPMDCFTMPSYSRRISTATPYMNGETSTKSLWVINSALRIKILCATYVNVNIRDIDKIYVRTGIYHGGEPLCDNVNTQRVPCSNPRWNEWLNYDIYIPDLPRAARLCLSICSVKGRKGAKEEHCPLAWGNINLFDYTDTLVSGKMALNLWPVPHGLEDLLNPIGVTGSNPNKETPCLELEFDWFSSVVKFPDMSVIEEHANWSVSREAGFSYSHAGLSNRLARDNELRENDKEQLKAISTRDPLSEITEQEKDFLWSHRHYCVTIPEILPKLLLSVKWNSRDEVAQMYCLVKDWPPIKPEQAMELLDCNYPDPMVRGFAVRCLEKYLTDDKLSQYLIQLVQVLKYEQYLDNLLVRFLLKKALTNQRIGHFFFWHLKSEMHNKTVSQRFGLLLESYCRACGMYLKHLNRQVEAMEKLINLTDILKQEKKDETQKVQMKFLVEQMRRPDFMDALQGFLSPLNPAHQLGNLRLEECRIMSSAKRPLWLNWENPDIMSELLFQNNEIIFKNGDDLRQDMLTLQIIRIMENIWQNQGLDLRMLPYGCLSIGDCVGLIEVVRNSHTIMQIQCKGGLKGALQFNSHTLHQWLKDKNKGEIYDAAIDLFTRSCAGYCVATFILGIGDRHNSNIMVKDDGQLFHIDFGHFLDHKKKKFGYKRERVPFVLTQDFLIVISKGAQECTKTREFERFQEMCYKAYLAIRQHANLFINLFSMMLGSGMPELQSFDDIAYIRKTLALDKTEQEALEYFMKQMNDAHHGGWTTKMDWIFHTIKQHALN
Sequence of PIK3CB (Human) (P42338 whole entry, looked up): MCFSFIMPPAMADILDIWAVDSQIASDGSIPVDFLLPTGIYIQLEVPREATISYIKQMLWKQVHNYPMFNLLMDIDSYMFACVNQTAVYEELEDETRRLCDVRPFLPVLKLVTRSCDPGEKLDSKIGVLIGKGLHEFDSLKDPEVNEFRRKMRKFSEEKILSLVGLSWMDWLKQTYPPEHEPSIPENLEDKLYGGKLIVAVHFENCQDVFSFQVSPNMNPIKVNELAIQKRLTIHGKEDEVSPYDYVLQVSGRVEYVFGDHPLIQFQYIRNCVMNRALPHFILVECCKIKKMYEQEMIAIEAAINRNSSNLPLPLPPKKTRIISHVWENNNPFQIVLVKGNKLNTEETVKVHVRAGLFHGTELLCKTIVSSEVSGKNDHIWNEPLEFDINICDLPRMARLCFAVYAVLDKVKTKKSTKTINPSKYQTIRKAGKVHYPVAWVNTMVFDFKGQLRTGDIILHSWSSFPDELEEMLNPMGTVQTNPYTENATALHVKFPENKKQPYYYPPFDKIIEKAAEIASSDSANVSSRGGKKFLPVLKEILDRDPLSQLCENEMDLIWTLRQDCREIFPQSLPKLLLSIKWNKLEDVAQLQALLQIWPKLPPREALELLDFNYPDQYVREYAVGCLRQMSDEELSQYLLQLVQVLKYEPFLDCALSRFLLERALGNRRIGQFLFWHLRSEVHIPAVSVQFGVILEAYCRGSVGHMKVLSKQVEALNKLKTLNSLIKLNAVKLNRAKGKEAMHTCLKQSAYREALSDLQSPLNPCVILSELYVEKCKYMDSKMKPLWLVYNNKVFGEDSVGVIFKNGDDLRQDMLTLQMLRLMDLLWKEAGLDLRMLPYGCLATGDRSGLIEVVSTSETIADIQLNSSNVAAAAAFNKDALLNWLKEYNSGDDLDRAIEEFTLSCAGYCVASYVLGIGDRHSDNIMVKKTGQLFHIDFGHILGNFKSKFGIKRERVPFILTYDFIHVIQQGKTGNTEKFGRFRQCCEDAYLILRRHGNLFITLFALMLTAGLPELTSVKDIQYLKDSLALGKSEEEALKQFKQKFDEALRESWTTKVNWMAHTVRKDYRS

IC50 (PIK3CA (human)) [nM]	IC50 (PIK3CB (Human)) [nM]	IC50 (PIK3CD (Human)) [nM]	IC50 (PIK3CG (human) [1]) [nM]	IC50 (PIK3CG (human) [2]) [nM]	SMILES
160	> 9100	10	6	122	Cc1ccc(S(=O)(=O)N[C@H]2CC[C@H](O)CC2)cc1-c1cncc(-c2csc(CN3CCOCC3)c2)n1
40	450	90	13	22	Cc1ccc(S(=O)(=O)NC2CC3(CC(O)C3)C2)cc1-c1cncc(-c2cn(C)nc2C)n1 (stereo not given)
90	630	100	11	61	Cc1ccc(S(=O)(=O)NC[C@H]2C[C@@H](O)C2)cc1-c1cncc(-c2cn(C)nc2C)n1
100	1900	40	38	122	Cc1cc(-c2cncc(-c3cc(S(=O)(=O)NC[C@H]4C[C@@H](O)C4)ccc3C)n2)n(C)n1
